Results taken from patent US10646580B2, “Oligosaccharide conjugates for targeting bacteria and uses related thereto” (priority 2011, dated 2020).
Values after ≈ are worked out from the molar mass of the structure shown.

Test system: Escherichia coli (ATCC 33456)
Experiment: Ampicillin IC50 in E. coli
Assay type: cell-based
Details: ATCC33456
Method: The ability of antibiotics to inhibit the uptake of MDP-1 in Escherichia coli was investigated. Escherichia coli (ATCC 33456) were grown in LB medium at 37° C. under 5% CO2 to an OD600=0.5, as described above. […] Escherichia coli were incubated with ampicillin for 1 hour at 37° C. under 5% CO2, and 60 μL of MDP-1 stock solutions (1 mM in PBS) were added, generating a 20 μM MDP concentration. Escherichia coli were incubated with MDPs in the presence of ampicillin for 1 hour at 37° C. under 5% CO2 in an incubator shaker. At this stage, a small aliquot of the bacterial culture was plated to determine the CFUs of bacteria in the MDP solution. Escherichia coli were harvested by centrifuging and the resulting pellets were washed 3 times with 10 mL PBS. The intracellular fluorescence of the bacteria was determined as described in FIG. 3a.

IC50: 3 µg/mL (≈ 8.59 µM)
SMILES: CC1(C)S[C@@H]2[C@H](NC(=O)[C@H](N)c3ccccc3)C(=O)N2[C@H]1C(=O)O [ampicillin]
